Several values for one entry are separate records, joined by “and”; a condition that tells them apart may be missing. Equal values may be shown once. Read-outs that look alike come from different tables or passages of the source.
Columns and labels:
human KOR [1] = target: T1, human KOR (Homo sapiens, UniProt P41145, V134A); experiment: cell-based; details: HTLA
T1 construct: expressed in transfected cells; host or cells: HEK 293T (ATCC, CRL-3216)

human KOR [2] = target: T2, human KOR (Homo sapiens, UniProt P41145, G319L); experiment: cell-based; details: HTLA
T2 construct: expressed in transfected cells; host or cells: HEK 293T (ATCC, CRL-3216)

human KOR [3] = target: T3, human KOR (Homo sapiens, UniProt P41145, W287A); experiment: cell-based; details: HTLA
T3 construct: expressed in transfected cells; host or cells: HEK 293T (ATCC, CRL-3216)

human KOR [4] = target: T4, human KOR (Homo sapiens, UniProt P41145, W124L); experiment: cell-based; details: HTLA
T4 construct: expressed in transfected cells; host or cells: HEK 293T (ATCC, CRL-3216)

human KOR [5] = target: T5, human KOR (Homo sapiens, UniProt P41145, Y320L); experiment: cell-based; details: HTLA
T5 construct: expressed in transfected cells; host or cells: HEK 293T (ATCC, CRL-3216)

human KOR [6] = target: T6, human KOR (Homo sapiens, UniProt P41145, K227A); experiment: cell-based; details: HTLA
T6 construct: expressed in transfected cells; host or cells: HEK 293T (ATCC, CRL-3216)

human KOR [7] = target: T7, human KOR (Homo sapiens, UniProt P41145, F114L); experiment: cell-based; details: HTLA
T7 construct: expressed in transfected cells; host or cells: HEK 293T (ATCC, CRL-3216)

human KOR [8] = target: T8, human KOR (Homo sapiens, UniProt P41145, Q115N); experiment: cell-based; details: HTLA
T8 construct: expressed in transfected cells; host or cells: HEK 293T (ATCC, CRL-3216)

MOR = target: T9, MOR (Homo sapiens, UniProt P35372); experiment: Radioligand competition binding (3H-Diprenorphine)
T9 construct: expressed in transfected cells; host or cells: HEK293

human KOR (GoB) [9] = target: T10, human KOR (GoB) (Homo sapiens, UniProt P41145, N322A); experiment: cell-based; details: HEK-293T
T10 construct: expressed in transfected cells; host or cells: HEK293T

human KOR (GoB) [10] = target: T11, human KOR (GoB) (Homo sapiens, UniProt P41145, F283A); experiment: cell-based; details: HEK-293T
T11 construct: expressed in transfected cells; host or cells: HEK293T

human KOR (GoB) [11] = target: T12, human KOR (GoB) (Homo sapiens, UniProt P41145, L253A); experiment: cell-based; details: HEK-293T
T12 construct: expressed in transfected cells; host or cells: HEK293T

human KOR (GoB) [12] = target: T13, human KOR (GoB) (Homo sapiens, UniProt P41145, F114L); experiment: cell-based; details: HEK-293T
T13 construct: expressed in transfected cells; host or cells: HEK293T

human KOR (GoB) [13] = target: T14, human KOR (GoB) (Homo sapiens, UniProt P41145, T94V); experiment: cell-based; details: HEK-293T
T14 construct: expressed in transfected cells; host or cells: HEK293T

human KOR (GoB) [14] = target: T15, human KOR (GoB) (Homo sapiens, UniProt P41145, Y320L); experiment: cell-based; details: HEK-293T
T15 construct: expressed in transfected cells; host or cells: HEK293T

human KOR (GoB) [15] = target: T16, human KOR (GoB) (Homo sapiens, UniProt P41145, G319L); experiment: cell-based; details: HEK-293T
T16 construct: expressed in transfected cells; host or cells: HEK293T

human KOR (GoB) [16] = target: T17, human KOR (GoB) (Homo sapiens, UniProt P41145, N141A); experiment: cell-based; details: HEK-293T
T17 construct: expressed in transfected cells; host or cells: HEK293T

human KOR (GoB) [17] = target: T18, human KOR (GoB) (Homo sapiens, UniProt P41145, N326A); experiment: cell-based; details: HEK-293T
T18 construct: expressed in transfected cells; host or cells: HEK293T

human KOR (GoB) [18] = target: T19, human KOR (GoB) (Homo sapiens, UniProt P41145, E297A); experiment: cell-based; details: HEK-293T
T19 construct: expressed in transfected cells; host or cells: HEK293T

human KOR (GoB) [19] = target: T20, human KOR (GoB) (Homo sapiens, UniProt P41145, R274A); experiment: cell-based; details: HEK-293T
T20 construct: expressed in transfected cells; host or cells: HEK293T

human KOR (GoB) [20] = target: T21, human KOR (GoB) (Homo sapiens, UniProt P41145); experiment: cell-based
T21 construct: expressed in transfected cells; host or cells: HEK293T

human KOR (GoB) [21] = target: T22, human KOR (GoB) (Homo sapiens, UniProt P41145, R257A); experiment: cell-based; details: HEK-293T
T22 construct: expressed in transfected cells; host or cells: HEK293T

human KOR (GoB) [22] = target: T23, human KOR (GoB) (Homo sapiens, UniProt P41145, D105A); experiment: cell-based; details: HEK-293T
T23 construct: expressed in transfected cells; host or cells: HEK293T

human KOR (GoB) [23] = target: T24, human KOR (GoB) (Homo sapiens, UniProt P41145, R170A); experiment: cell-based; details: HEK-293T
T24 construct: expressed in transfected cells; host or cells: HEK293T

human KOR (GoB) [24] = target: T25, human KOR (GoB) (Homo sapiens, UniProt P41145, D334A); experiment: cell-based; details: HEK-293T
T25 construct: expressed in transfected cells; host or cells: HEK293T

human KOR [25] = target: T26, human KOR (Homo sapiens, UniProt P41145, S211A); experiment: cell-based; details: HEK-293T
T26 construct: expressed in transfected cells; host or cells: HEK 293T (ATCC, CRL-3216)

human KOR [26] = target: T2, human KOR; experiment: cell-based; details: HEK-293T
human KOR [27] = target: human KOR (Homo sapiens, UniProt P41145); experiment: cell-based
human KOR [28] = target: T3, human KOR; experiment: cell-based; details: HEK-293T
human KOR [29] = target: T4, human KOR; experiment: cell-based; details: HEK-293T
human KOR [30] = target: T6, human KOR; experiment: cell-based; details: HEK-293T

T5 sequence (P41145 whole entry Y320L): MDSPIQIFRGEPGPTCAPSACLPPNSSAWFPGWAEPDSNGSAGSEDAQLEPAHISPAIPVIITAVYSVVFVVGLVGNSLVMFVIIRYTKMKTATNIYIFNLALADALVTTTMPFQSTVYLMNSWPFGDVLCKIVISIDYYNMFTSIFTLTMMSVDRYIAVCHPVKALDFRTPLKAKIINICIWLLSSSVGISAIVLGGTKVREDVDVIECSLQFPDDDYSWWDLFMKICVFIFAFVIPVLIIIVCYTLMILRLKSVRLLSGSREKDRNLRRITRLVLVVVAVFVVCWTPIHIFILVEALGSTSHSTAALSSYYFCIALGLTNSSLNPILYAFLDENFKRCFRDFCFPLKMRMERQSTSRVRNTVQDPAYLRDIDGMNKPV
T4 sequence (P41145 whole entry W124L): as the sequence (P41145 whole entry Y320L) above, with W124L, L320Y counted along it
T7 sequence (P41145 whole entry F114L): as the sequence (P41145 whole entry Y320L) above, with F114L, L320Y counted along it
T26 sequence (P41145 whole entry S211A): as the sequence (P41145 whole entry Y320L) above, with S211A, L320Y counted along it
T1 sequence (P41145 whole entry V134A): as the sequence (P41145 whole entry Y320L) above, with V134A, L320Y counted along it
T2 sequence (P41145 whole entry G319L): as the sequence (P41145 whole entry Y320L) above, with G319L, L320Y counted along it
T3 sequence (P41145 whole entry W287A): as the sequence (P41145 whole entry Y320L) above, with W287A, L320Y counted along it
T6 sequence (P41145 whole entry K227A): as the sequence (P41145 whole entry Y320L) above, with K227A, L320Y counted along it
T21 sequence (P41145 whole entry): as the sequence (P41145 whole entry Y320L) above, with L320Y counted along it
T12 sequence (P41145 whole entry L253A): as the sequence (P41145 whole entry Y320L) above, with L253A, L320Y counted along it
T11 sequence (P41145 whole entry F283A): as the sequence (P41145 whole entry Y320L) above, with F283A, L320Y counted along it
T23 sequence (P41145 whole entry D105A): as the sequence (P41145 whole entry Y320L) above, with D105A, L320Y counted along it
T15 sequence (P41145 whole entry Y320L): as the sequence (P41145 whole entry Y320L) above
T19 sequence (P41145 whole entry E297A): as the sequence (P41145 whole entry Y320L) above, with E297A, L320Y counted along it
T10 sequence (P41145 whole entry N322A): as the sequence (P41145 whole entry Y320L) above, with L320Y, N322A counted along it
Sequence of human KOR (Homo sapiens, UniProt P41145) (P41145 whole entry): as the sequence (P41145 whole entry Y320L) above, with L320Y counted along it
T13 sequence (P41145 whole entry F114L): as the sequence (P41145 whole entry Y320L) above, with F114L, L320Y counted along it
T14 sequence (P41145 whole entry T94V): as the sequence (P41145 whole entry Y320L) above, with T94V, L320Y counted along it
T9 sequence (P35372 whole entry): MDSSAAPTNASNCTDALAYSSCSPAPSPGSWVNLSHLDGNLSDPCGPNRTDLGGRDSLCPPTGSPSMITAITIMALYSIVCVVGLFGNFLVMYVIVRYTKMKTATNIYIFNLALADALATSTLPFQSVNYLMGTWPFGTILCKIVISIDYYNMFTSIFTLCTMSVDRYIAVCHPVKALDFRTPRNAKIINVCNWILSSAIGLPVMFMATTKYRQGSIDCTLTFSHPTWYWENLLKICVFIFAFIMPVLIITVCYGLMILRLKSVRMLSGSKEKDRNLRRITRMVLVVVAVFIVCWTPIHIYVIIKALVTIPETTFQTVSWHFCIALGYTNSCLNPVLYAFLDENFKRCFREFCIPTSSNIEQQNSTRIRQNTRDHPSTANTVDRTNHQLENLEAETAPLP
T18 sequence (P41145 whole entry N326A): as the sequence (P41145 whole entry Y320L) above, with L320Y, N326A counted along it
T8 sequence (P41145 whole entry Q115N): as the sequence (P41145 whole entry Y320L) above, with Q115N, L320Y counted along it
T20 sequence (P41145 whole entry R274A): as the sequence (P41145 whole entry Y320L) above, with R274A, L320Y counted along it
T25 sequence (P41145 whole entry D334A): as the sequence (P41145 whole entry Y320L) above, with L320Y, D334A counted along it
T22 sequence (P41145 whole entry R257A): as the sequence (P41145 whole entry Y320L) above, with R257A, L320Y counted along it
T17 sequence (P41145 whole entry N141A): as the sequence (P41145 whole entry Y320L) above, with N141A, L320Y counted along it
T16 sequence (P41145 whole entry G319L): as the sequence (P41145 whole entry Y320L) above, with G319L, L320Y counted along it
T24 sequence (P41145 whole entry R170A): as the sequence (P41145 whole entry Y320L) above, with R170A, L320Y counted along it

In the case of `CN(C(=O)/C=C/c1ccoc1)[C@@H]1CC[C@@]2(O)[C@H]3Cc4ccc(O)c5c4[C@@]2(CCN3CC2CC2)[C@H]1O5` [Nalfurafine, nalfurafine], the Emax (human KOR [1]) is reported as 76 ± 6%, the activation at 10 µM (human KOR [1]; read-out: Tango response) is reported as 71.1% and the activation at […] (human KOR [1]; read-out: Tango response) is reported as 50.8% and 73.3%. It also gave an Emax (human KOR [2]) of 2.6 ± 1.2%, an activation at 1 µM (human KOR [2]; read-out: Tango response) of 4.03% and an Emax (human KOR [3]) of 85 ± 7%. The Emax (human KOR [4]) was 26 ± 4%, the activation at 1 µM (human KOR [4]; read-out: Tango response) was 19.6% and the activation at […] (human KOR [4]; read-out: Tango response) was 21% and 25.5%. It also gave an Emax (human KOR [5]) of 66 ± 7%, an activation at 0.1 µM (human KOR [5]; read-out: Tango response) of 43.6% and an activation at 1 µM (human KOR [5]; read-out: Tango response) of 51.8%. The activation at 10 µM (human KOR [5]; read-out: Tango response) was 79.2%, the activation at […] (human KOR [5]; read-out: Tango response) was 53% and 72.8% and the Emax (human KOR [6]) was 89 ± 3%. The Emax (human KOR [7]) was 17 ± 3%, the activation at 1 µM (human KOR [7]; read-out: Tango response) was 16.2% and the activation at 10 µM (human KOR [7]; read-out: Tango response) was 15.9%. The activation at […] (human KOR [7]; read-out: Tango response) was 30.3%, the Emax (human KOR [8]) was 98 ± 3% and the Ki (MOR) was 0.0132 µM. It also gave an Emax (human KOR (GoB) [9]) of 87.1%, an Emax (human KOR (GoB) [10]) of 91% and an Emax (human KOR (GoB) [11]) of 107%. For the same compound, the Emax (human KOR (GoB) [12]) was 77.5%, the Emax (human KOR (GoB) [13]) was 100% and the Emax (human KOR (GoB) [14]) was 76%. The Emax (human KOR (GoB) [15]) was 108%, the Emax (human KOR (GoB) [16]) was 98.7% and the Emax (human KOR (GoB) [17]) was 93.6%. It also gave an Emax (human KOR (GoB) [18]) of 103%, an Emax (human KOR (GoB) [19]) of 101% and an Emax% (human KOR (GoB) [20]) of 99.55%. For the same compound, the Emax (human KOR (GoB) [20]; HEK-293T) was 99.8%, the Emax (human KOR (GoB) [21]) was 99.6% and the Emax (human KOR (GoB) [22]) was 91%. The Emax (human KOR (GoB) [23]) was 87.8%, the Emax (human KOR (GoB) [24]) was 91.1% and the Emax (human KOR [25]) was 107 ± 2%. The activation at 1 pM (human KOR [25]; read-out: cAMP response) was 16.4%, the activation at 3.162 pM (human KOR [25]; read-out: cAMP response) was 71% and the activation at 10 pM (human KOR [25]; read-out: cAMP response) was 91.3%. The activation at 31.62 pM (human KOR [25]; read-out: cAMP response) was 99.8%, the activation at 0.0001 µM (human KOR [25]; read-out: cAMP response) was 106% and the activation at 0.001 µM (human KOR [25]; read-out: cAMP response) was 107%. It also gave an activation at 0.01 µM (human KOR [25]; read-out: cAMP response) of 108%, an activation at 0.1 µM (human KOR [25]; read-out: cAMP response) of 107% and an activation at 1 µM (human KOR [25]; read-out: cAMP response) of 103%. The activation at […] (human KOR [25]; read-out: cAMP response) was 107% (2×) and 105% and 104%, the Emax (human KOR [26]) was 103 ± 4% and the activation at 1 pM (human KOR [26]; read-out: cAMP response) was 18.4%. It also gave an activation at 31.62 pM (human KOR [26]; read-out: cAMP response) of 24%, an activation at 0.0001 µM (human KOR [26]; read-out: cAMP response) of 46% and an activation at 0.001 µM (human KOR [26]; read-out: cAMP response) of 62.9%. The activation at 0.01 µM (human KOR [26]; read-out: cAMP response) was 94.9%, the activation at 0.1 µM (human KOR [26]; read-out: cAMP response) was 107% and the activation at 1 µM (human KOR [26]; read-out: cAMP response) was 104%. The activation at […] (human KOR [26]; read-out: cAMP response) was 44.6% and 75.9% and 100%, the reduction of potency (human KOR [27]) was 5 fold and the Emax (human KOR [28]) was 98 ± 4%. The Emax (human KOR [29]) was 98 ± 3%, the activation at 10 pM (human KOR [29]; read-out: cAMP response) was 17.5% and the activation at 0.0001 µM (human KOR [29]; read-out: cAMP response) was 29.6%. The activation at 0.001 µM (human KOR [29]; read-out: cAMP response) was 65.5%, the activation at 0.01 µM (human KOR [29]; read-out: cAMP response) was 88.1% and the activation at 0.1 µM (human KOR [29]; read-out: cAMP response) was 106%. For the same compound, the activation at 1 µM (human KOR [29]; read-out: cAMP response) was 99.8%, the activation at […] (human KOR [29]; read-out: cAMP response) was 45.8% and 75.2% and 98.3% and 97.1% and the Emax (human KOR [30]) was 100 ± 3%.

From publication PMC10008561 (Nature Communications, 2023)
